Laboratory results published in patent US12371454B2, “Cyclic peptide compound having Kras inhibitory action” (priority 2019, dated 2025).
Starred links: 1 amine or outer side, 2 acyl side, 3 side chain; linkers in the order of their positions; H or OH if unused. Positions of bridges follow the written chain, without caps; N, C: chain ends. Non-standard residues stand in square brackets, D forms with d. Residues, ends and D or L forms follow the SMILES beside them. *: point of attachment. hPhe(3-Cl-4-CF3) = N[C@@H](CCc1ccc(C(F)(F)F)c(Cl)c1)C(=O)O; hPhe(3-F,4-CF3) = N[C@@H](CCc1ccc(C(F)(F)F)c(F)c1)C(=O)O; NMePhe(3-CN) = CN[C@@H](Cc1cccc(C#N)c1)C(=O)O; NMePhe(4-Cl) = CN[C@@H](Cc1ccc(Cl)cc1)C(=O)O; NMePhe(4-Me) = CN[C@@H](Cc1ccc(C)cc1)C(=O)O; NMePhe(4-I) = CN[C@@H](Cc1ccc(I)cc1)C(=O)O; hPhe(4-Cl) = N[C@@H](CCc1ccc(Cl)cc1)C(=O)O; NMedβ3hAla = C[C@H](CC(=O)[*:2])N(C)[*:1]; NMeGly(cPent) = CN[C@H](C(=O)O)C1CCCC1; dαMeGly(allyl) = C=CC[C@@](C)(N)C(=O)O; NMeAla(cPr) = CN[C@@H](CC1CC1)C(=O)O; NMe3Pal = CN[C@@H](Cc1cccnc1)C(=O)O; NMeCha = CN[C@@H](CC1CCCCC1)C(=O)O; NMeChg = CN[C@H](C(=O)O)C1CCCCC1; NMeI = CC[C@H](C)[C@H](NC)C(=O)O; NMeD = CN[C@@H](CC(=O)O)C(=O)O; NMeHpra = C#CCC[C@H](NC)C(=O)O; NMeL = CN[C@@H](CC(C)C)C(=O)O; NEtAla = CCN[C@@H](C)C(=O)O; NMeV = CN[C@H](C(=O)O)C(C)C; d(β3hA) = C[C@@H](N)CC(=O)O; dIva = CC[C@@](C)(N)C(=O)O; NMeS = CN[C@@H](CO)C(=O)O; NMeA = CN[C@@H](C)C(=O)O; Piperidide = C1CCN(*)CC1; dNMeA = CN[C@H](C)C(=O)O; Ac5c = NC1(C(=O)O)CCCC1; Aze = O=C(O)[C@@H]1CCN1; Cyclobutyl = C1CC(*)C1; Isopentyl = CC(C)CC*; Sar = CNCC(=O)O

Columns and labels:
[1] = target: T1, Kras and SOS1 (biotin-tagged human Kras loaded with GDP, His-tagged human SOS1) (Homo sapiens, UniProt P01116, G12D); test: Protein-protein interaction inhibition between Kras and SOS1 (KrasGl2D-SOS PPI) using AlphaScreen; format: binding; details: AlphaScreen; biotin-tagged human Kras loaded with GDP, His-tagged human SOS1; read-out: KRAS G12D-SOS PPI IC50
T1 construct: made in house; host or cells: E. coli (stated for Kras only)
T1 sequence (P01116 1-188 isoform P01116-2 G12D): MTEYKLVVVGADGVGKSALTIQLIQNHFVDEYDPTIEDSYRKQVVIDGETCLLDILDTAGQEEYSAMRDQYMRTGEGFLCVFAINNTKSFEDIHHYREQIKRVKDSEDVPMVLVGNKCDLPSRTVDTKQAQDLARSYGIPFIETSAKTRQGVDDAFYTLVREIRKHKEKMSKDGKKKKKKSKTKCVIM
Method in brief: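 Read-out is acceptor-bead light at 520-620 nm, arising when 680 nm-irradiated nickel donor beads pass singlet oxygen to streptavidin acceptors. The bead pair links His-tagged SOS1 with biotin-tagged, GDP-bound Kras from E. coli.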

[2] = tested on: Human pancreatic cancer cell line AsPC-1; test: Measurement of AsPC-1 cell growth inhibition (AsPC-1 CGI); format: cell-based; details: 96 h
Method in brief: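 AsPC-1 cells in 15% FBS RPMI-1640 were exposed to test compound for 96 hours at 37° C, with CellTiter-Glo as endpoint.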

Row | Compound | IC50 [1] | IC50 [2]
1 | CC[C@H](C)[C@@H]1NC(=O)[C@H](CC(C)C)N(C)C(=O)C[C@@H](C)N(C)C(=O)[C@H](C(C)C)N(C)C(=O)[C@@](C)(CC)NC(=O)[C@@H]2CCCN2C(=O)[C@H](CCc2ccc(C(F)(F)F)c(Cl)c2)NC(=O)CN(C)C(=O)[C@H](CC2CCCCC2)N(C)C(=O)CN(C)C(=O)CN(C)C1=O [Compound 223] (cyclo(I[Sar][Sar][NMeCha][Sar][hPhe(3-Cl-4-CF3)]P[dIva][NMeV][NMedβ3hAla][NMeL])) | 18 nM | 100 to 500 nM
2 | CC[C@H](C)[C@@H]1NC(=O)[C@H](CC(C)C)N(C)C(=O)C[C@@H](C(=O)N2CCCCC2)N(C)C(=O)[C@H](C(C)C)N(C)C(=O)C2(CCCC2)NC(=O)[C@@H]2CCCN2C(=O)[C@H](CCc2ccc(C(F)(F)F)c(F)c2)NC(=O)CN(C)C(=O)[C@H](Cc2ccc(Cl)cc2)N(C)C(=O)CN(C)C(=O)CN(C)C1=O [Compound 229] ([NMeL]I[Sar][Sar][NMePhe(4-Cl)][Sar][hPhe(3-F,4-CF3)]P[Ac5c][NMeV][NMeD]-Piperidide; lactam N-11) | 6.7 nM | 100 to 500 nM
3 | CC[C@H](C)[C@@H]1NC(=O)[C@H](CC(C)C)N(C)C(=O)C[C@@H](C(=O)N2CCCCC2)N(C)C(=O)[C@H](C2CCCCC2)N(C)C(=O)C2(CCCC2)NC(=O)[C@@H]2CCCN2C(=O)[C@H](CCc2ccc(C(F)(F)F)c(Cl)c2)NC(=O)CN(C)C(=O)[C@H](CC2CC2)N(C)C(=O)CN(C)C(=O)CN(C)C1=O [Compound 234] ([NMeL]I[Sar][Sar][NMeAla(cPr)][Sar][hPhe(3-Cl-4-CF3)]P[Ac5c][NMeChg][NMeD]-Piperidide; lactam N-11) | 2.1 nM | > 500 nM
4 | CC[C@H](C)[C@@H]1NC(=O)[C@H](CC(C)C)N(C)C(=O)C[C@@H](C)N(C)C(=O)[C@H](C(C)C)N(C)C(=O)C2(CCCC2)NC(=O)[C@@H]2CCCN2C(=O)[C@H](CCc2ccc(C(F)(F)F)c(Cl)c2)NC(=O)CN(C)C(=O)[C@H](Cc2cccc(C#N)c2)N(C)C(=O)CN(C)C(=O)CN(C)C1=O [Compound 238] (cyclo([Ac5c][NMeV][NMedβ3hAla][NMeL]I[Sar][Sar][NMePhe(3-CN)][Sar][hPhe(3-Cl-4-CF3)]P)) | 12 nM | 100 to 500 nM
5 | CC[C@H](C)[C@@H]1NC(=O)[C@H](CC(C)C)N(C)C(=O)C[C@@H](C(=O)N(C)C)N(C)C(=O)[C@H]([C@@H](C)CC)N(C)C(=O)C2(CCCC2)NC(=O)[C@H](Cc2cccnc2)N(C)C(=O)[C@H](CCc2ccc(C(F)(F)F)c(Cl)c2)NC(=O)CN(C)C(=O)[C@H](Cc2ccc(C)cc2)N(C)C(=O)[C@@H]2CCN2C(=O)[C@H](C)N(C)C1=O [Compound 243] ([NMeL]I[NMeA][Aze][NMePhe(4-Me)][Sar][hPhe(3-Cl-4-CF3)][NMe3Pal][Ac5c][NMeI][NMeD]-NMe2; lactam N-11) | 0.43 nM | 20 to 50 nM
6 | CC[C@H](C)[C@@H]1NC(=O)[C@H](C)N(C)C(=O)C[C@@H](C(=O)N2CCCCC2)N(C)C(=O)[C@H](C2CCCC2)N(C)C(=O)C2(CCCC2)NC(=O)[C@@H]2CCCN2C(=O)[C@H](CCc2ccc(C(F)(F)F)c(Cl)c2)NC(=O)CN(C)C(=O)[C@H](CC2CCCCC2)N(C)C(=O)CN(C)C(=O)CN(C)C1=O [Compound 246] ([NMeA]I[Sar][Sar][NMeCha][Sar][hPhe(3-Cl-4-CF3)]P[Ac5c][NMeGly(cPent)][NMeD]-Piperidide; lactam N-11) | 0.3 nM | 50 to 100 nM
7 | CC[C@H](C)[C@@H]1NC(=O)[C@H](CC(C)C)N(C)C(=O)C[C@@H](C(=O)N(C)C)N(C)C(=O)[C@H](C2CCCC2)N(C)C(=O)C2(CCCC2)NC(=O)[C@H](COCCC(C)C)N(C)C(=O)[C@H](CCc2ccc(C(F)(F)F)c(Cl)c2)NC(=O)CN(C)C(=O)[C@H](CC2CCCCC2)N(C)C(=O)[C@@H]2CCN2C(=O)[C@H](C)N(C)C1=O [Compound 250] ([NMeL]I[NMeA][Aze][NMeCha][Sar][hPhe(3-Cl-4-CF3)][NMeS](Isopentyl)[Ac5c][NMeGly(cPent)][NMeD]-NMe2; lactam N-11) | 9.8 nM | 100 to 500 nM
8 | CC[C@H](C)[C@@H]1NC(=O)[C@H](C)N(CC)C(=O)C[C@@H](C)N(C)C(=O)[C@H](C(C)C)N(C)C(=O)C2(CCCC2)NC(=O)[C@@H]2CCCN2C(=O)[C@H](CCc2ccc(C(F)(F)F)c(Cl)c2)NC(=O)CN(C)C(=O)[C@H](CC2CCCCC2)N(C)C(=O)CN(C)C(=O)CN(C)C1=O [Compound 264] (cyclo([Ac5c][NMeV][NMedβ3hAla][NEtAla]I[Sar][Sar][NMeCha][Sar][hPhe(3-Cl-4-CF3)]P)) | 4.5 nM | 100 to 500 nM
9 | CC[C@H](C)[C@@H]1NC(=O)[C@H](CC(C)C)N(C)C(=O)C[C@@H](C(=O)N(C)C)N(C)C(=O)[C@H](C2CCCC2)N(C)C(=O)C2(CCCC2)NC(=O)[C@H](C)N(C)C(=O)[C@H](CCc2ccc(C(F)(F)F)c(Cl)c2)NC(=O)CN(C)C(=O)[C@H](CC2CCCCC2)N(C)C(=O)[C@@H]2CCN2C(=O)[C@H](C)N(C)C1=O [Compound 274] ([NMeL]I[NMeA][Aze][NMeCha][Sar][hPhe(3-Cl-4-CF3)][NMeA][Ac5c][NMeGly(cPent)][NMeD]-NMe2; lactam N-11) | 0.82 nM | 50 to 100 nM
10 | CC[C@H](C)[C@@H]1NC(=O)[C@H](CC2CCCCC2)N(C)C(=O)C[C@@H](C)NC(=O)[C@H](C(C)C)N(C)C(=O)C2(CCCC2)NC(=O)[C@@H]2CCCN2C(=O)[C@H](CCc2ccc(C(F)(F)F)c(Cl)c2)NC(=O)CN(C)C(=O)[C@H](CC2CCCCC2)N(C)C(=O)CN(C)C(=O)CN(C)C1=O [Compound 285] (cyclo([Ac5c][NMeV][d(β3hA)][NMeCha]I[Sar][Sar][NMeCha][Sar][hPhe(3-Cl-4-CF3)]P)) | 52 nM | 100 to 500 nM
11 | C=CC[C@@]1(C)NC(=O)[C@@H]2CCCN2C(=O)[C@H](CCc2ccc(C(F)(F)F)c(Cl)c2)NC(=O)CN(C)C(=O)[C@H](CC2CCCCC2)N(C)C(=O)CN(C)C(=O)CN(C)C(=O)[C@H]([C@@H](C)CC)NC(=O)[C@H](CC(C)C)N(C)C(=O)C[C@@H](C(=O)N2CCCCC2)N(C)C(=O)[C@H](C(C)C)N(C)C1=O [Compound 287] ([NMeL]I[Sar][Sar][NMeCha][Sar][hPhe(3-Cl-4-CF3)]P[dαMeGly(allyl)][NMeV][NMeD]-Piperidide; lactam N-11) | 5.1 nM | 100 to 500 nM
12 | CC[C@H](C)[C@@H]1NC(=O)[C@H](CC(C)C)N(C)C(=O)C[C@@H](C(=O)N(C)C)N(C)C(=O)[C@H]([C@@H](C)CC)N(C)C(=O)C2(CCCC2)NC(=O)[C@@H](C)N(C)C(=O)[C@H](CCc2ccc(C(F)(F)F)c(Cl)c2)NC(=O)CN(C)C(=O)[C@H](Cc2ccc(C)cc2)N(C)C(=O)[C@@H]2CCN2C(=O)[C@H](C)N(C)C1=O [Compound 288] ([NMeL]I[NMeA][Aze][NMePhe(4-Me)][Sar][hPhe(3-Cl-4-CF3)][dNMeA][Ac5c][NMeI][NMeD]-NMe2; lactam N-11) | 1.7 nM | 100 to 500 nM
13 | CC[C@H](C)[C@@H]1NC(=O)[C@H](C)N(C)C(=O)C[C@@H](C(=O)N2CCCCC2)N(C)C(=O)[C@H](C2CCCCC2)N(C)C(=O)C2(CCCC2)NC(=O)[C@@H]2CCCN2C(=O)[C@H](CCc2ccc(Cl)cc2)NC(=O)CN(C)C(=O)[C@H](CC2CCCCC2)N(C)C(=O)CN(C)C(=O)CN(C)C1=O [Compound 292] ([NMeA]I[Sar][Sar][NMeCha][Sar][hPhe(4-Cl)]P[Ac5c][NMeChg][NMeD]-Piperidide; lactam N-11) | 0.45 nM | 50 to 100 nM
14 | C#CCC[C@H]1C(=O)N[C@@H]([C@@H](C)CC)C(=O)N(C)CC(=O)N(C)CC(=O)N(C)[C@@H](Cc2ccc(I)cc2)C(=O)N(C)CC(=O)N[C@@H](CCc2ccc(C(F)(F)F)c(Cl)c2)C(=O)N2CCC[C@H]2C(=O)NC2(CCCC2)C(=O)N(C)[C@@H](C2CCCCC2)C(=O)N[C@H](C)CC(=O)N1C [Compound 300] (cyclo([Ac5c][NMeChg][d(β3hA)][NMeHpra]I[Sar][Sar][NMePhe(4-I)][Sar][hPhe(3-Cl-4-CF3)]P)) | 9.5 nM | 100 to 500 nM
15 | CC[C@H](C)[C@@H]1NC(=O)[C@H](CC(C)C)N(C)C(=O)C[C@@H](C(=O)N2CCCCC2)N(C)C(=O)[C@H](C2CCCCC2)N(C)C(=O)C2(CCCC2)NC(=O)[C@@H]2CCCN2C(=O)[C@H](CCc2ccc(C(F)(F)F)c(Cl)c2)NC(=O)CN(C)C(=O)[C@H](COC2CCC2)N(C)C(=O)CN(C)C(=O)CN(C)C1=O [Compound 309] ([NMeL]I[Sar][Sar][NMeS](Cyclobutyl)[Sar][hPhe(3-Cl-4-CF3)]P[Ac5c][NMeChg][NMeD]-Piperidide; lactam N-11) | 0.75 nM | 100 to 500 nM
16 | CC[C@H](C)[C@@H]1NC(=O)[C@H](CC(C)C)N(C)C(=O)C[C@@H](C(=O)N2CCCCC2)N(C)C(=O)[C@H]([C@@H](C)CC)N(C)C(=O)C2(CCCC2)NC(=O)[C@@H]2CCCN2C(=O)[C@H](CCc2ccc(C(F)(F)F)c(Cl)c2)NC(=O)CN(C)C(=O)[C@H](CC2CCCCC2)N(C)C(=O)CN(C)C(=O)CN(C)C1=O [Compound 311] ([NMeL]I[Sar][Sar][NMeCha][Sar][hPhe(3-Cl-4-CF3)]P[Ac5c][NMeI][NMeD]-Piperidide; lactam N-11) | 5.9 nM | 20 to 50 nM
